Data published in ChEMBL document CHEMBL5230100, “Novel quinazoline-based EGFR kinase inhibitors: A review focussing on SAR and molecular docking studies (2015-2019)” (Eur J Med Chem, 2020).
Several values for one entry are separate records, joined by “and”; a condition that tells them apart may be missing. Identical values can stand only once.

Tests used:
MRC5 = test: Antiproliferative activity against human MRC5 cells assessed as cell growth inhibition incubated for 72 hrs by MTT assay; format: functional, cell-based; conditions: MRC5, 72 h
MCF7 = test: Antiproliferative activity against human MCF7 cells assessed as cell growth inhibition incubated for 72 hrs by MTT assay; format: functional, cell-based; conditions: MCF7, 72 h
[1] = molecular target: T1, Epidermal growth factor receptor (Homo sapiens, UniProt P00533)
T1 sequence (P00533 whole entry): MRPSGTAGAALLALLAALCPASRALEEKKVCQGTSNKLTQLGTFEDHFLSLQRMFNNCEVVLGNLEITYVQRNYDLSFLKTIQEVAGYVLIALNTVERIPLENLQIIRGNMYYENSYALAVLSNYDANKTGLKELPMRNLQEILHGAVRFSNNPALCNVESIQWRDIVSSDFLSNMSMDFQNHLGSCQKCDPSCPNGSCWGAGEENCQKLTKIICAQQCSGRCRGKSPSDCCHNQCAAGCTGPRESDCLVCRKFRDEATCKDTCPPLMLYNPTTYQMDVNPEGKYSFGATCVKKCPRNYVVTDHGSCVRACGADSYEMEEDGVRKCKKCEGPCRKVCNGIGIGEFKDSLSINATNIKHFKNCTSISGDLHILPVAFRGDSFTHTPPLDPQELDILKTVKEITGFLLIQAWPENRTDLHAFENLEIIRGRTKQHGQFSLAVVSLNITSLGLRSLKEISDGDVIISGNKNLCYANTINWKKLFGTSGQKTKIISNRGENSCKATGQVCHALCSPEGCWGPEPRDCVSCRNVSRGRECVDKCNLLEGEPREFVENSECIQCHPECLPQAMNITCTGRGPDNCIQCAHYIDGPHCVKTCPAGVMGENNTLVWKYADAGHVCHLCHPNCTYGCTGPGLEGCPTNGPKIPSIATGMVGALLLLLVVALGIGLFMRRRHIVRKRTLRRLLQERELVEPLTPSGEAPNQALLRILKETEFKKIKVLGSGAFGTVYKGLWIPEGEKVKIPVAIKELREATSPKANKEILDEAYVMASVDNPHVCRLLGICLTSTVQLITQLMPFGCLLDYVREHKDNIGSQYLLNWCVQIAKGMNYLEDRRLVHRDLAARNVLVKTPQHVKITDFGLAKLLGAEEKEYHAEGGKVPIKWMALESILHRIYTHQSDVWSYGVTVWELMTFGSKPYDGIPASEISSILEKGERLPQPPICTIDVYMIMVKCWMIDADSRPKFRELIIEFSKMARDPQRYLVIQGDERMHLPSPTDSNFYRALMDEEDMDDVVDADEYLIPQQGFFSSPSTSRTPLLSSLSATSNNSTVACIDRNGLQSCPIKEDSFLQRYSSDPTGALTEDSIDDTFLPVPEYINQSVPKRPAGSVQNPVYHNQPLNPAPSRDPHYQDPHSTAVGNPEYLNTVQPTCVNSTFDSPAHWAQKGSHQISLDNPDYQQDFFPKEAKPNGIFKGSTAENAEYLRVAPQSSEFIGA

[2] = molecular target: T2, Receptor tyrosine-protein kinase erbB-2 (Homo sapiens, UniProt P04626); test: Inhibition of human HER2
T2 sequence (P04626 whole entry): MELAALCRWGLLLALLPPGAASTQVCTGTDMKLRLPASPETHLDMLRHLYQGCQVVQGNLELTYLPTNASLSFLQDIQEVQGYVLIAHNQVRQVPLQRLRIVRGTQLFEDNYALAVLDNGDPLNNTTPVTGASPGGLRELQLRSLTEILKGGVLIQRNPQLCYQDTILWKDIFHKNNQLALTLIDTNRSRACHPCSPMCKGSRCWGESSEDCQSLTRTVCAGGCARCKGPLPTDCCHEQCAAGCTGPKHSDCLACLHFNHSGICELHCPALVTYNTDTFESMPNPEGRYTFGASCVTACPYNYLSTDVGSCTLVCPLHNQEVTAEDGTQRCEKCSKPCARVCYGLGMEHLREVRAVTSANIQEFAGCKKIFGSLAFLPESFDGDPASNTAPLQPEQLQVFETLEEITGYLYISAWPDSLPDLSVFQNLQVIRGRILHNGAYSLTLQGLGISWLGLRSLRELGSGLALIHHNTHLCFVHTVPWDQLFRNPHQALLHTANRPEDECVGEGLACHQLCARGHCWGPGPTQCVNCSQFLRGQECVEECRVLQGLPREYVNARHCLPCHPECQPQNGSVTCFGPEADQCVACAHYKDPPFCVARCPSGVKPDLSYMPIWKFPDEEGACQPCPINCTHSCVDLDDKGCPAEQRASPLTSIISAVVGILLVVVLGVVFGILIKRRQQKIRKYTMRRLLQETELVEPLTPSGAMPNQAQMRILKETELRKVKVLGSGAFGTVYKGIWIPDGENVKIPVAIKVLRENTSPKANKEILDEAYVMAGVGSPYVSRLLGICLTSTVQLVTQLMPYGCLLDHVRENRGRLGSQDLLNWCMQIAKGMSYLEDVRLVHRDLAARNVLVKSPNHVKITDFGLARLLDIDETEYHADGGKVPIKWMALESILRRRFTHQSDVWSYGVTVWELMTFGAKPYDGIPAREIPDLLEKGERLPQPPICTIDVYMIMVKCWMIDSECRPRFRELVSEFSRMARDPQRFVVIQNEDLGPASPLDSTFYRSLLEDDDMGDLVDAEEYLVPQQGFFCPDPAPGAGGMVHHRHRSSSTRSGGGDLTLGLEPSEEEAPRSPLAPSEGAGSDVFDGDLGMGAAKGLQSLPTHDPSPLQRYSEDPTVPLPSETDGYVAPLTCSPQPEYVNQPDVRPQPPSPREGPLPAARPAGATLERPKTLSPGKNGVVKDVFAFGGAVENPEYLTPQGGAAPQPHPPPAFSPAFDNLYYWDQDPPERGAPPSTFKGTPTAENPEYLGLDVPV

[3] = molecular target: T3, Vascular endothelial growth factor receptor 2 (Homo sapiens, UniProt P35968)
T3 sequence (P35968 whole entry): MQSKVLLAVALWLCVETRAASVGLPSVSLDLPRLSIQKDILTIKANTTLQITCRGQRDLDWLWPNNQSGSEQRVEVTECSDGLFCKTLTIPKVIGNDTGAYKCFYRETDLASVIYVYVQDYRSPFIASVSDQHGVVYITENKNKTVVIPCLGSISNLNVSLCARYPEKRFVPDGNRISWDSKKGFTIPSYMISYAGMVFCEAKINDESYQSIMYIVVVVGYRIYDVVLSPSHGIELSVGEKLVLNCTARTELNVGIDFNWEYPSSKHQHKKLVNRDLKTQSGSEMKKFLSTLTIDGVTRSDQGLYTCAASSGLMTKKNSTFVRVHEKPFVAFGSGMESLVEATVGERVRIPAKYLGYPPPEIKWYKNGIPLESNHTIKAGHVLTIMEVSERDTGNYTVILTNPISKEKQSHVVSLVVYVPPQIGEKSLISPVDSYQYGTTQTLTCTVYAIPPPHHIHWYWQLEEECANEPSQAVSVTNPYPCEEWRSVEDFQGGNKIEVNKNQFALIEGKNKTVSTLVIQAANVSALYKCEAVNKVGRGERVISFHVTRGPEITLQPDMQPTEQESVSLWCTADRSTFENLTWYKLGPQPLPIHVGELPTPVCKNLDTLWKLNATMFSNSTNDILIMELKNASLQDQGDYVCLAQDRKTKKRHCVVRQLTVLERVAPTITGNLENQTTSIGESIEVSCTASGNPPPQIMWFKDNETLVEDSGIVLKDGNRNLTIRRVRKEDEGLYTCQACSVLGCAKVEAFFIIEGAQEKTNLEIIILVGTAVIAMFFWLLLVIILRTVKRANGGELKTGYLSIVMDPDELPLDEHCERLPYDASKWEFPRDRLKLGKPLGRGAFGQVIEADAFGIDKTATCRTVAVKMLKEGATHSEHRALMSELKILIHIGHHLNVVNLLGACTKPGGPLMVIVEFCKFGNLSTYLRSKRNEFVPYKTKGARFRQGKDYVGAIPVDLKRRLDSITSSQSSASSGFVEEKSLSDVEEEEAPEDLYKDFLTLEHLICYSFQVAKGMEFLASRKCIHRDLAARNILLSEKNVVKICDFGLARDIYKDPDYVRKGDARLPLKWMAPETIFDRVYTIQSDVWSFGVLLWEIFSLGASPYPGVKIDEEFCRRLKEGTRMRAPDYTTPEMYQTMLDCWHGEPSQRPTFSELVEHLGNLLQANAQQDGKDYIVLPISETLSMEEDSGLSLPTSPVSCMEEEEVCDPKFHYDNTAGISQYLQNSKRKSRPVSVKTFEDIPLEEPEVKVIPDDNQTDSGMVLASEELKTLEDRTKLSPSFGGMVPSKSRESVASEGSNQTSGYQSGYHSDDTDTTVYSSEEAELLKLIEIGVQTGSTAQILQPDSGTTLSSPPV
Description: Inhibition of VEGFR2 (unknown origin)

K562 = test: Antiproliferative activity against human K562 cells assessed as cell growth inhibition incubated for 72 hrs by MTT assay; format: functional, cell-based; conditions: K562, 72 h
HT-29 [4] = test: Antiproliferative activity against human HT-29 cells assessed as cell growth inhibition incubated for 72 hrs by MTT assay; format: functional, cell-based
HL-60 = test: Antiproliferative activity against human HL-60 cells assessed as cell growth inhibition incubated for 72 hrs by MTT assay; format: functional, cell-based
MDA-MB-231 [5] = test: Cytotoxicity against human MDA-MB-231 assessed as radio sensitizing effect incubated for 24 hrs in presence of gamma irradiation by MTT assay; format: functional
[6] = molecular target: T2, Receptor tyrosine-protein kinase erbB-2; test: Inhibition of HER2 (unknown origin) incubated for 1 hrs by ELISA assay
MDA-MB-231 [7] = test: Anticancer activity against human MDA-MB-231 cells assessed as cell growth inhibition incubated for 24 hrs by MTT assay; format: functional, cell-based; conditions: MDA-MB-231, 24 h
[8] = molecular target: T1, Epidermal growth factor receptor; test: Inhibition of EGFR (unknown origin) incubated for 1 hrs by ELISA assay
HT-29 [9] = test: Antiproliferative activity against human HT-29 cells assessed as cell growth inhibition incubated for 72 hrs under normoxia condition by SRB assay; format: functional, cell-based; conditions: HT-29, 72 h
A549 [10] = test: Antiproliferative activity against human A549 cells assessed as cell growth inhibition incubated for 72 hrs under normoxia condition by SRB assay; format: functional, cell-based; conditions: A549, 72 h
HT-29 [11] = test: Antiproliferative activity against human HT-29 cells assessed as cell growth inhibition incubated for 72 hrs under hypoxia condition by SRB assay; format: functional, cell-based; conditions: HT-29, 72 h
A549 [12] = test: Antiproliferative activity against human A549 cells assessed as cell growth inhibition incubated for 72 hrs under hypoxia condition by SRB assay; format: functional, cell-based; conditions: A549, 72 h
[13] = molecular target: T1, Epidermal growth factor receptor; remark: listed apart in the source
A549 [14] = test: cells; format: functional, cell-based; conditions: Homo sapiens, A549, 72 h
Description: Antiproliferative activity against human A549 cells assessed as cell growth inhibition incubated for 72 hrs by MTT assay

[15] = molecular target: Epidermal growth factor receptor (Homo sapiens, UniProt P00533, T790M/L858R)
Chain of Epidermal growth factor receptor (Homo sapiens, UniProt P00533, T790M/L858R) (P00533 25-1210 T790M/L858R limits assumed): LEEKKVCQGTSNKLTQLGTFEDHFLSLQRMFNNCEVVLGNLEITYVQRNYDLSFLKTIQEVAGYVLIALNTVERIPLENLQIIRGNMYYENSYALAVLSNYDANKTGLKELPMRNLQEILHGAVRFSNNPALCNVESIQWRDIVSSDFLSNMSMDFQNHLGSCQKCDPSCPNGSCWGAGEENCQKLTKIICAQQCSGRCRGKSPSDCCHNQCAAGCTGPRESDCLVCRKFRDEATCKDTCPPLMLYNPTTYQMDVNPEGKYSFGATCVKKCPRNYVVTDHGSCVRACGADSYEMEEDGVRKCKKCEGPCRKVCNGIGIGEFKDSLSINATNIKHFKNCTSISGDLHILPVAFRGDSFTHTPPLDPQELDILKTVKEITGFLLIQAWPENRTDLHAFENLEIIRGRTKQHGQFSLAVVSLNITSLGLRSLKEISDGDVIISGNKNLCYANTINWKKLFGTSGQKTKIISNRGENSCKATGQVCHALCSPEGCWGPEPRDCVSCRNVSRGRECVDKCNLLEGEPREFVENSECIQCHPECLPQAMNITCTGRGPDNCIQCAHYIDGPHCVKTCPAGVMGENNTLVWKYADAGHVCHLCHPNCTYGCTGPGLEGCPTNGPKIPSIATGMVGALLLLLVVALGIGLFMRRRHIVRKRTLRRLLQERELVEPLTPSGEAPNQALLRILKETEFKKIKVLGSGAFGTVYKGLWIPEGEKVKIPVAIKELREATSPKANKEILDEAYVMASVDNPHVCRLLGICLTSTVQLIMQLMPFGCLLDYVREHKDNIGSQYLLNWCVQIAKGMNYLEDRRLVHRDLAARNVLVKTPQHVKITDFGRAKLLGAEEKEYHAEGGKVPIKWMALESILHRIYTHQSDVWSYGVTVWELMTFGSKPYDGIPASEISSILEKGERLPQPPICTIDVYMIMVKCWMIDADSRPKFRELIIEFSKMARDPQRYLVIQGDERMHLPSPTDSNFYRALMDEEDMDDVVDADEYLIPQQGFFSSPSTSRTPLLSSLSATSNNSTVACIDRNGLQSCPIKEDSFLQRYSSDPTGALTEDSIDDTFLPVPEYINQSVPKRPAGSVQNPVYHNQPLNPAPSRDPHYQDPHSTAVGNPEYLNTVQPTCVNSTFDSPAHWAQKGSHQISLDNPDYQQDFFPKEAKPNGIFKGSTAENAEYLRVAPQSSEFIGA

HepG2 [16] = test: Antiproliferative activity against human HepG2 cells assessed as cell growth inhibition incubated for 72 hrs by MTT assay; format: functional, cell-based; conditions: HepG2, 72 h
A549 [17] = test: cells; conditions: Homo sapiens
Description: Antiproliferative activity against human A549 cells assessed as cell growth inhibition by MTT assay

MDA-MB-231 [18] = test: Antiproliferative activity against human MDA-MB-231 cells assessed as cell growth inhibition incubated for 48 hrs by MTT assay; format: functional, cell-based; conditions: MDA-MB-231, 48 h
A549 [19] = test: Radiosensitizing activity against human A549 cells assessed as radiosensitization ratio by MTT assay; format: functional
A549 [20] = test: cells; format: functional, cell-based; conditions: Homo sapiens, A549, 48 h
Description: Antiproliferative activity against human A549 cells assessed as cell growth inhibition incubated for 48 hrs by MTT assay

HepG2 [21] = test: cells; format: functional, cell-based; conditions: Homo sapiens, HepG2, 48 h
Description: Antiproliferative activity against human HepG2 cells assessed as cell growth inhibition incubated for 48 hrs by MTT assay

SK-OV-3 = test: cells; format: functional, cell-based; conditions: Homo sapiens, SK-OV-3, 48 h
Description: Antiproliferative activity against human SK-OV-3 cells assessed as cell growth inhibition incubated for 48 hrs by MTT assay

CNE = test: cells; format: functional, cell-based; conditions: Homo sapiens, 48 h
Description: Antiproliferative activity against human CNE cells assessed as cell growth inhibition incubated for 48 hrs by MTT assay

A549 [22] = test: Anticancer activity against human A549 cells assessed as cell growth inhibition incubated for 24 hrs by MTT assay; format: functional, cell-based; conditions: A549, 24 h
cells = format: functional, cell-based; conditions: Homo sapiens, HBE, 72 h
Description: Antiproliferative activity against human HBE cells assessed as cell growth inhibition incubated for 72 hrs by MTT assay

A-431 = test: cells; format: functional, cell-based; conditions: Homo sapiens, A-431, 72 h
Description: Antiproliferative activity against human A-431 cells assessed as cell growth inhibition incubated for 72 hrs by MTT assay

MDA-MB-231 [23] = test: cells; conditions: Homo sapiens, MDA-MB-231, 72 h
Description: Antiproliferative activity against human MDA-MB-231 cells assessed as cell growth inhibition incubated for 72 hrs by MTT assay

[24] = molecular target: T3, Vascular endothelial growth factor receptor 2; remark: listed apart in the source
NCI-H460 = test: Antiproliferative activity against human NCI-H460 cells assessed as cell growth inhibition incubated for 72 hrs by MTT assay; format: functional, cell-based; conditions: NCI-H460, 72 h
A549 [25] = test: Induction of apoptosis in human A549 cells assessed as late apoptotic cells measured after 48 hrs by Annexin V-FITC/ Propidium iodide staining based flow cytometry relative to control; format: functional

Question: Which IC50 (MRC5) does the source give for `NS(=O)(=O)c1ccc(CCn2c(SCC(=O)Nc3ccc(Cl)cc3)nc3ccccc3c2=O)cc1` here?
Answer: Its IC50 is 3770 nM.

Question: What about the IC50 (MCF7) of the same compound?
Answer: Its IC50 is 1040 nM.

Question: And the IC50 [1]?
Answer: The IC50 was 200 nM.

Question: And the IC50 [2]?
Answer: Its IC50 is 170 nM.

Question: What about the IC50 [3] of the same compound?
Answer: The IC50 was 390 nM.

Question: And the IC50 (K562)?
Answer: Its IC50 is 2030 nM.

Question: What about the IC50 (HT-29 [4]; Homo sapiens, HT-29, 72 h) of the same compound?
Answer: Its IC50 is 1430 nM.

Question: What about the IC50 (HL-60) of the same compound?
Answer: The IC50 was 410 nM and 2030 nM.

Question: Which Activity (MDA-MB-231 [5]) does the source give for `CN1C(=O)c2ccc(NC(=O)CSc3nc4cc5ccccc5cc4c(=O)n3-c3ccc(S(N)(=O)=O)cc3)cc2C1=O` here?
Answer: The Activity was 0.18 µM.

Question: What about the IC50 [6] of the same compound?
Answer: The IC50 was 1320 nM.

Question: And the IC50 (MDA-MB-231 [7])?
Answer: Its IC50 is 500 nM.

Question: And the IC50 [8]?
Answer: Its IC50 is 640 nM.

Question: What does the source list for `COc1cc2ncnc(Nc3ccc(OCCn4ccnc4[N+](=O)[O-])c(Cl)c3)c2cc1OCCCN1CCOCC1`?
Answer: IC50 (HT-29 [9]): 2460 nM; IC50 (A549 [10]): 1590 nM; IC50 [1]: 120 nM; IC50 (HT-29 [11]): 1350 nM; IC50 (A549 [12]): 1090 nM

Question: Which IC50 [13] does the source give for `O=C(N/N=C/c1cnc(N2CCCC2)nc1)Nc1cc2c(Nc3ccc(F)c(Cl)c3)ncnc2cc1O[C@H]1CCOC1` here?
Answer: Its IC50 is 6.3 nM.

Question: What about the IC50 (MCF7) of the same compound?
Answer: The IC50 was 2370 nM.

Question: What about the IC50 (A549 [14]) of the same compound?
Answer: Its IC50 is 5900 nM.

Question: And the IC50 [15]?
Answer: Its IC50 is 8.4 nM.

Question: What about the IC50 (HepG2 [16]) of the same compound?
Answer: Its IC50 is 4630 nM.

Question: Which IC50 (HT-29 [9]) does the source give for `CS(=O)(=O)CCNCc1ccc(-c2ccc3ncnc(Nc4ccc(OCc5cccc(F)c5)c(Cl)c4)c3c2)o1` [LAPATINIB] here?
Answer: The IC50 was 6810 nM.

Question: What about the IC50 (A549 [10]) of the same compound?
Answer: Its IC50 is 11300 nM.

Question: And the IC50 (HT-29 [11])?
Answer: Its IC50 is 8850 nM.

Question: And the IC50 (A549 [17])?
Answer: The IC50 was 14900 nM.

Question: What about the IC50 (A549 [12]) of the same compound?
Answer: Its IC50 is 13300 nM.

Question: For `Cc1ccc(Nc2ncnc3ccc(NC(=O)c4cc(OCc5ccccc5)c5c(c4)C(=O)c4cccc(OCc6ccccc6)c4C5=O)cc23)cc1`, which IC50 (MDA-MB-231 [18]) is on record?
Answer: The IC50 was 3200 nM.

Question: What about the Ratio (A549 [19]) of the same compound?
Answer: Its Ratio is 1.88.

Question: What about the IC50 (A549 [20]) of the same compound?
Answer: The IC50 was 23300 nM.

Question: What about the IC50 (HepG2 [21]) of the same compound?
Answer: The IC50 was 34900 nM.

Question: What about the IC50 (SK-OV-3) of the same compound?
Answer: The IC50 was 12500 nM.

Question: And the IC50 (CNE)?
Answer: The IC50 was 2100 nM.

Question: Which IC50 (A549 [22]) does the source give for `CCc1cccc(NC(=O)CSc2nc3cc4ccccc4cc3c(=O)n2-c2ccc(S(N)(=O)=O)cc2)c1` here?
Answer: Its IC50 is 727 nM.

Question: For `C=CC(=O)Nc1cccc(Nc2nc(Nc3ccc(N4CCN(C(C)=O)CC4)cc3OC)ncc2C(F)(F)F)c1` [ROCILETINIB], which IC50 (cells) is on record?
Answer: Its IC50 is greater than 40000 nM.

Question: What about the IC50 (A-431) of the same compound?
Answer: The IC50 was 1290 nM.

Question: And the IC50 (A549 [14])?
Answer: Its IC50 is 6500 nM.

Question: Which results are given for `O=C(O)c1cc(O)c2c(c1)C(=O)c1cccc(O)c1C2=O` [RHEIN]?
Answer: IC50 (A549 [20]): 138000 nM; IC50 (HepG2 [21]): 74600 nM

Question: For `Cc1cccc(Cl)c1NC(=O)Nc1ccc(-c2nc(NCCN(C)C)c3ccccc3n2)cc1`, which IC50 (A549 [14]) is on record?
Answer: The IC50 was 360 nM.

Question: And the IC50 (MDA-MB-231 [23])?
Answer: The IC50 was 750 nM.

Question: And the IC50 (HT-29 [4]; Homo sapiens, HT-29, 72 h)?
Answer: The IC50 was 150 nM.

Question: And the IC50 [24]?
Answer: Its IC50 is 93 nM.

Question: And the IC50 (NCI-H460)?
Answer: The IC50 was 89 nM.

Question: With `CNC(=O)c1cc(Oc2ccc(NC(=O)Nc3ccc(Cl)c(C(F)(F)F)c3)cc2)ccn1` [SORAFENIB] as the compound, how does the IC50 (MRC5) read?
Answer: Its IC50 is 24100 nM.

Question: And the IC50 (MCF7)?
Answer: The IC50 was 2500 nM.

Question: And the IC50 (A549 [14])?
Answer: The IC50 was 4470 nM.

Question: And the IC50 (MDA-MB-231 [23])?
Answer: Its IC50 is 3810 nM.

Question: What about the IC50 (HT-29 [4]; Homo sapiens, HT-29, 72 h) of the same compound?
Answer: The IC50 was 2500 nM.

Question: What about the IC50 (HT-29 [4]; ht-29) of the same compound?
Answer: The IC50 was 3270 nM.

Question: And the IC50 (NCI-H460)?
Answer: The IC50 was 2150 nM.

Question: With `CN(C)C/C=C/C(=O)Nc1cc2c(Nc3ccc(F)c(Cl)c3)ncnc2cc1O[C@H]1CCOC1` [AFATINIB] as the compound, how does the Activity (A549 [25]) read?
Answer: The Activity was 13.53%.
